Laboratory results: the supplement of paper PMC10627819

How the values were obtained:
S. pneumoniae D39V [1] = assay: fitness (endpoint OD595 vs no drug) (fraction); higher = more growth
How it was run: (§1)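 In 384-well plates at 37 °C, cultures began at OD595 0.01 in 30 µl, with 55 µl used for S. pneumoniae. OD595 readings every 30 min for 14 h were corrected by the first reading. Fitness divides the stationary-phase transition optical density by the robust mean of no-drug control wells. The result is capped at 1.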

B. subtilis 168 [2] = assay: as above
How it was run: as §1

S. pneumoniae D39V [3] = assay: Bliss interaction score (quartile over a dose matrix) (fitness difference); higher = more antagonism (negative = synergy)
How it was run: (§2)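 The Bliss score subtracts expected fitness, the product of the single-drug fitness values, from observed fitness. Fitness is plate-normalised OD595 at entry into stationary phase, relative to the robust no-drug mean and capped at 1, with single-drug fitness inferred from combinations. Summaries are quartiles over technical, biological and donor/recipient replicates.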

B. subtilis 168 [4] = assay: as above
How it was run: as §2

S. aureus Newman = assay: as above
How it was run: as §2

S. aureus DSM 20231 = assay: as above
How it was run: as §2
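For Bliss interaction score (quartile over a dose matrix) in this document: first quartile when negative (synergy) and third quartile when positive (antagonism).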

C[C@H]1c2cccc(O)c2C(=O)C2=C(O)[C@]3(O)C(=O)C(C(N)=O)=C(O)[C@@H](N(C)C)[C@@H]3[C@@H](O)[C@@H]21 [Doxycycline] + CCN(CC)CCOC(=O)c1ccc(N)cc1 [Procaine]
fitness, S. pneumoniae D39V [1], one replicate
Settings	partner 85.5 µg/mL	partner 171 µg/mL	partner 342 µg/mL
first compound 0.003875 µg/mL	≥ 1	≥ 1	≥ 1
first compound 0.00775 µg/mL	≥ 1	0.971	0.994

fitness
Settings	partner 85.5 µg/mL	partner 171 µg/mL	partner 342 µg/mL
B. subtilis 168 [2], first compound 0.02 µg/mL	0.892	0.855	0.844
B. subtilis 168 [2], first compound 0.04 µg/mL	0.742	0.707	0.7
B. subtilis 168 [2], first compound 0.08 µg/mL	–	0.363	–
S. pneumoniae D39V [1], first compound 0.0155 µg/mL	0.972	0.95	0.955
S. pneumoniae D39V [1], first compound 0.031 µg/mL	0.862	0.835	0.849
S. pneumoniae D39V [1], first compound 0.062 µg/mL	0.77	0.753	0.744

Settings	Bliss interaction score
B. subtilis 168 [4]	-0.0366
S. aureus DSM 20231	-0.0922
S. aureus Newman	0.0409
S. pneumoniae D39V [3]	0.0386

C[C@H]1c2cccc(O)c2C(=O)C2=C(O)[C@]3(O)C(=O)C(C(N)=O)=C(O)[C@@H](N(C)C)[C@@H]3[C@@H](O)[C@@H]21 [Doxycycline] + CN[C@@H]1[C@H](O)[C@H](NC)[C@H]2O[C@@]3(O)C(=O)C[C@@H](C)O[C@H]3O[C@@H]2[C@H]1O [Spectinomycin]
fitness, S. pneumoniae D39V [1], one replicate
Settings	first compound 0.003875 µg/mL	first compound 0.00775 µg/mL	first compound 0.031 µg/mL	first compound 0.062 µg/mL
partner 4 µg/mL	0.971	0.908	–	–
partner 8 µg/mL	0.949	0.925	–	–
partner 16 µg/mL	0.804	0.834	0.768	0.673

fitness
Settings	partner 2 µg/mL	partner 4 µg/mL	partner 8 µg/mL	partner 16 µg/mL
B. subtilis 168 [2], first compound 0.02 µg/mL	0.909	0.881	0.835	–
B. subtilis 168 [2], first compound 0.04 µg/mL	0.824	0.828	0.712	–
B. subtilis 168 [2], first compound 0.08 µg/mL	0.546	–	0.402	–
S. pneumoniae D39V [1], first compound 0.0155 µg/mL	–	0.91	0.869	0.805
S. pneumoniae D39V [1], first compound 0.031 µg/mL	–	0.879	0.822	–
S. pneumoniae D39V [1], first compound 0.062 µg/mL	–	0.783	0.758	–

Settings	Bliss interaction score
B. subtilis 168 [4]	-0.0339
S. aureus DSM 20231	-0.0389
S. aureus Newman	-0.0405
S. pneumoniae D39V [3]	-0.0375

COc1cccc2c1C(=O)c1c(O)c3c(c(O)c1C2=O)C[C@@](O)(C(=O)CO)C[C@@H]3O[C@H]1C[C@H](N)[C@H](O)[C@H](C)O1 [Doxorubicin] + CN(C)C(=O)C(CCN1CCC(O)(c2ccc(Cl)cc2)CC1)(c1ccccc1)c1ccccc1 [Loperamide]
Settings	fitness
B. subtilis 168 [2], first compound 0.625 µg/mL, partner 50 µg/mL	0.0285
B. subtilis 168 [2], first compound 0.625 µg/mL, partner 100 µg/mL	0.0284
B. subtilis 168 [2], first compound 1.25 µg/mL, partner 50 µg/mL	0.0281
B. subtilis 168 [2], first compound 1.25 µg/mL, partner 100 µg/mL	0.0427
B. subtilis 168 [2], first compound 2.5 µg/mL, partner 25 µg/mL	0.0131
B. subtilis 168 [2], first compound 2.5 µg/mL, partner 50 µg/mL	0.0232
B. subtilis 168 [2], first compound 2.5 µg/mL, partner 100 µg/mL	0.019
S. pneumoniae D39V [1], first compound 0.25 µg/mL, partner 17.14 µg/mL	0.905
S. pneumoniae D39V [1], first compound 0.25 µg/mL, partner 20 µg/mL	≥ 1
S. pneumoniae D39V [1], first compound 0.25 µg/mL, partner 34.28 µg/mL	0.884
S. pneumoniae D39V [1], first compound 0.25 µg/mL, partner 40 µg/mL	≥ 1
S. pneumoniae D39V [1], first compound 0.5 µg/mL, partner 17.14 µg/mL	0.915
S. pneumoniae D39V [1], first compound 0.5 µg/mL, partner 20 µg/mL	≥ 1
S. pneumoniae D39V [1], first compound 0.5 µg/mL, partner 34.28 µg/mL	0.899
S. pneumoniae D39V [1], first compound 0.5 µg/mL, partner 40 µg/mL	≥ 1
S. pneumoniae D39V [1], first compound 1 µg/mL, partner 17.14 µg/mL	0.912
S. pneumoniae D39V [1], first compound 1 µg/mL, partner 20 µg/mL	0.991
S. pneumoniae D39V [1], first compound 1 µg/mL, partner 34.28 µg/mL	0.902
S. pneumoniae D39V [1], first compound 1 µg/mL, partner 40 µg/mL	0.967

S. pneumoniae D39V [1], partner 68.57 µg/mL, one replicate
Settings	fitness
first compound 0.25 µg/mL	0.87
first compound 0.5 µg/mL	0.872
first compound 1 µg/mL	0.929

Settings	Bliss interaction score
B. subtilis 168 [4]	-0.228
S. aureus DSM 20231	-0.0983
S. aureus Newman	-0.0664
S. pneumoniae D39V [3]	0.0787
